Among the data in publication PMC7143284, “A Phenotarget Approach for Identifying an Alkaloid Interacting with the Tuberculosis Protein Rv1466” (Marine Drugs, 2020) are Kd values, retold here.

The test deals with Rv1466 (Mycobacterium tuberculosis, UniProt O53157). Briefly: […]; bound species is […] Da (half of the disulfide dimer). Type of test: binding.

For orientation: Kd means the constant that tells how readily two partners part at equilibrium. The low end stands for tighter binding, the high end for weaker binding.

Rv1466, sequence (O53157 1-115 limits assumed): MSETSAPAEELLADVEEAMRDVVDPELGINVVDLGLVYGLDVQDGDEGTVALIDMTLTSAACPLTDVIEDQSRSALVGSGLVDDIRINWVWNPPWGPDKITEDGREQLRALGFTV

In turn, `COc1ccc(-c2nc(N)n(C)c2SSc2c(-c3ccc(OC)cc3)nc(N)n2C)cc1` [polycarpine] had a Kd of 5.3 ± 0.4 µM.
